Source: article doi:10.1101/2021.10.07.463234v2 (biorxiv, 2021)
Where a name gives a salt, the structure may show the parent alone.

Target: SARS-CoV-2 Mac1 (Severe acute respiratory syndrome coronavirus 2, UniProt P0DTD1)
Experiment: biochemical
Conditions: for inhibition at 100 µM: read-out: %inhibition; for %inhibition: 100 µM, inhibitor

| SMILES | inhibition at 100 µM [%] | %inhibition [%] |
| --- | --- | --- |
| CCC(Cc1c(I)cc(I)c(N)c1I)C(=O)O (stereo not shown) [Iopanoic acid] | 0 | – |
| O=C(NCC(O)CO)c1c(I)c(C(=O)NCC(O)CO)c(I)c(N(CCO)C(=O)CO)c1I (stereo not shown) [Ioversol] | 25.5 | – |
| CC(C)[N+]1(C)[C@@H]2CC[C@H]1C[C@@H](OC(=O)C(CO)c1ccccc1)C2 (stereo partly shown) [Ipratropium Bromide] | 9.25 | – |
| CC(C)Oc1ccc2c(=O)c(-c3ccccc3)coc2c1 [Ipriflavone (Osteofix)] | 0 | – |
| CCCCC1=NC2(CCCC2)C(=O)N1Cc1ccc(-c2ccccc2-c2nnn[nH]2)cc1 [Irbesartan] | 2.32 | – |
| CCc1c2c(nc3ccc(OC(=O)N4CCC(N5CCCCC5)CC4)cc13)-c1cc3c(c(=O)n1C2)COC(=O)[C@]3(O)CC [Irinotecan HCl Trihydrate] | 0 | – |
| Nc1nc(N)nc(-c2cc(Cl)ccc2Cl)n1 [Irsogladine] | 22.5 | – |
| C[C@@H](c1nc(-c2ccc(C#N)cc2)cs1)[C@](O)(Cn1cncn1)c1cc(F)ccc1F [Isavuconazole] | 0 | – |
| CN[C@@H]1[C@@H](O)[C@@H](O[C@@H]2[C@@H](O)[C@H](O[C@H]3O[C@H](CN)[C@@H](O)[C@H](O)[C@H]3O)[C@@H](N)C[C@H]2NC(=O)[C@@H](O)CN)OC[C@]1(C)O [Isepamicin Sulphate] | 5.6 | – |
| Clc1ccc(C(Cn2ccnc2)OCc2c(Cl)cccc2Cl)c(Cl)c1 (stereo not shown) [Isoconazole nitrate] | 34.7 | – |
| CCC(NC(C)C)C(O)c1ccc(O)c(O)c1 (stereo not shown) [Isoetharine Mesylate] | 17.6 | – |
| NNC(=O)c1ccncc1 [Isoniazid] | 24.4 | – |
| CC(C)NCC(O)c1ccc(O)c(O)c1 (stereo not shown) [Isoprenaline HCl] | 5.07 | – |
| O=[N+]([O-])O[C@@H]1CO[C@H]2[C@@H]1OC[C@@H]2O [Isosorbide Mononitrate] | 2.49 | – |
| O[C@@H]1CO[C@H]2[C@@H]1OC[C@@H]2O [Isosorbide] | 17.9 | – |
| CC1=C(/C=C/C(C)=C/C=C/C(C)=C\C(=O)O)C(C)(C)CCC1 [Isotretinoin] | 0 | – |
| Cc1cc(NC(=O)C2=C(O)c3ccccc3S(=O)(=O)N2C)no1 [Isoxicam] | 13.6 | – |
| Cc1ccc(C(=O)N(CCCN)[C@@H](c2nc3cc(Cl)ccc3c(=O)n2Cc2ccccc2)C(C)C)cc1 [Ispinesib (SB-715992)] | 0 | – |
| COC(=O)C1=C(C)NC(C)=C(C(=O)OC(C)C)C1c1cccc2nonc12 (stereo not shown) [Isradipine] | 0 | – |
| CCn1c(=O)c2c(nc(/C=C/c3ccc(OC)c(OC)c3)n2C)n(CC)c1=O [Istradefylline] | 28.9 | – |
| COc1ccc(C(=O)NCc2ccc(OCCN(C)C)cc2)cc1OC [Itopride hydrochloride] | 0 | – |
| COc1cc2c(cc1OC)CC(=O)N(CCCN(C)C[C@H]1Cc3cc(OC)c(OC)cc31)CC2 [Ivabradine HCl] | 0 | – |
| CC(C)(C)c1cc(C(C)(C)C)c(NC(=O)c2c[nH]c3ccccc3c2=O)cc1O [Ivacaftor (VX-770)] | 5.97 | – |
| N#Cc1ccnc(N2C(=O)CC[C@H]2C(=O)N(c2cncc(F)c2)[C@H](C(=O)NC2CC(F)(F)C2)c2ccccc2Cl)c1 [Ivosidenib (AG-120)] | 9.59 | – |
| C/C(=C\c1csc(C)n1)[C@@H]1C[C@@H]2O[C@]2(C)CCC[C@H](C)[C@H](O)[C@@H](C)C(=O)C(C)(C)[C@@H](O)CC(=O)N1 [Ixabepilone (BMS-247550)] | 5.68 | – |

| SMILES | inhibition at 100 µM [%] | %inhibition [%] |
| --- | --- | --- |
| CC(C)C[C@H](NC(=O)CNC(=O)c1cc(Cl)ccc1Cl)B(O)O [Ixazomib (MLN2238)] | 5.63 | – |
| CC(C)C[C@H](NC(=O)CNC(=O)c1cc(Cl)ccc1Cl)B1OC(=O)CC(CC(=O)O)(C(=O)O)O1 (stereo partly shown) [Ixazomib Citrate (MLN9708)] | 0 | – |
| NC[C@H]1O[C@H](O[C@H]2[C@H](O)[C@@H](O[C@H]3O[C@H](CO)[C@@H](O)[C@H](N)[C@H]3O)[C@H](N)C[C@@H]2N)[C@H](O)[C@@H](O)[C@@H]1O [Kanamycin sulfate] | 4.88 | – |
| O=C(c1ccc(F)cc1)C1CCN(CCn2c(=O)[nH]c3ccccc3c2=O)CC1 [Ketanserin] | 11.6 | – |
| CC(C(=O)O)c1cccc(C(=O)c2ccccc2)c1 (stereo not shown) [Ketoprofen] | 0 | – |
| O=C(c1ccccc1)c1ccc2n1CCC2C(=O)O (stereo not shown) [Ketorolac] | 11.8 | – |
| CN1CCC(=C2c3ccccc3CC(=O)c3sccc32)CC1 [Ketotifen Fumarate] | 0 | – |
| CNC[C@@H](O)c1ccc(O)c(O)c1 [L-Adrenaline] | 31.6 | – |
| N=C(N)NCCC[C@H](N)C(=O)O [L-Arginine HCl (L-Arg)] | 0 | – |
| N[C@H]1CONC1=O [L-Cycloserine] | 1.65 | – |
| N[C@@H](CS)C(=O)O [L-Cysteine HCl] | 0 | – |
| N[C@@H](CCC(=O)O)C(=O)O [L-Glutamic acid monosodium salt] | 0 | – |
| NC(=O)CC[C@H](N)C(=O)O [L-Glutamine] | 0 | – |
| CC(C)C[C@H](N)C(=O)O [L-Leucine] | 0 | – |
| NCCCC[C@H](N)C(=O)O [L-Lysine hydrochloride] | 9.1 | – |
| NCCC[C@H](N)C(=O)O [L-Ornithine] | 0 | – |
| C[Se]CC[C@H](N)C(=O)O [L-SelenoMethionine] | 0 | – |
| N[C@@H](Cc1cc(I)c(Oc2cc(I)c(O)c(I)c2)c(I)c1)C(=O)O [L-Thyroxine] | – | 10.74 |
| C[N+](C)(C)C[C@H](O)CC(=O)[O-] [L-carnitine] | 3.55 | – |
| CC(CCc1ccccc1)NCC(O)c1ccc(O)c(C(N)=O)c1 (stereo not shown) [Labetalol HCl] | 0 | – |
| CCOC(=O)C1=C(C)NC(C)=C(C(=O)OCC)C1c1ccccc1/C=C/C(=O)OC(C)(C)C [Lacidipine] | 3.07 | – |
| OC[C@@H](O)[C@@H](O[C@@H]1O[C@H](CO)[C@H](O)[C@H](O)[C@H]1O)[C@H](O)[C@@H](O)CO [Lactitol monohydrate] | – | 1.512 |
| OC[C@@H](O)[C@@H](O[C@@H]1O[C@H](CO)[C@H](O)[C@H](O)[C@H]1O)[C@H](O)[C@@H](O)CO [Lactitol] | – | 5.8 |
| O=C(C[S+]([O-])Cc1ccco1)NC/C=C\COc1cc(CN2CCCCC2)ccn1 (stereo not shown) [Lafutidine] | 0 | – |
| Nc1ccn([C@@H]2CS[C@H](CO)O2)c(=O)n1 [Lamivudine] | 0 | – |

| SMILES | inhibition at 100 µM [%] | %inhibition [%] |
| --- | --- | --- |
| Nc1nnc(-c2cccc(Cl)c2Cl)c(N)n1 [Lamotrigine] | 12.3 | – |
| CC1(C)OC[C@@H](COC(=O)CCc2ccc(OC[C@@H](O)CNCCNC(=O)N3CCOCC3)cc2)O1 [Landiolol hydrochloride] | 18 | – |
| Cc1c(OCC(F)(F)F)ccnc1C[S+]([O-])c1nc2ccccc2[nH]1 (stereo not shown) [Lansoprazole] | 4.45 | – |
| CS(=O)(=O)CCNCc1ccc(-c2ccc3ncnc(Nc4ccc(OCc5cccc(F)c5)c(Cl)c4)c3c2)o1 [Lapatinib (GW-572016) Ditosylate] | – | 16.67 |
| CS(=O)(=O)CCNCc1ccc(-c2ccc3ncnc(Nc4ccc(OCc5cccc(F)c5)c(Cl)c4)c3c2)o1 [Lapatinib ditosylate monohydrate] | – | 13.25 |
| CS(=O)(=O)CCNCc1ccc(-c2ccc3ncnc(Nc4ccc(OCc5cccc(F)c5)c(Cl)c4)c3c2)o1 [Lapatinib] | – | 0 |
| CCN(C(=O)c1c(O)c2c(Cl)cccc2n(C)c1=O)c1ccccc1 [Laquinimod] | 22.6 | – |
| CO[C@@]1(NC(=O)C(C(=O)O)c2ccc(O)cc2)C(=O)N2C(C(=O)O)=C(CSc3nnnn3C)CO[C@@H]21 (stereo partly shown) [Latamoxef sodium] | 17 | – |
| CC(C)OC(=O)CCC/C=C\C[C@@H]1[C@@H](CC[C@@H](O)CCc2ccccc2)[C@H](O)C[C@@H]1O [Latanoprost] | 23.8 | – |
| COC(=O)N[C@H](C(=O)N1CC2(CC2)C[C@H]1c1nc(-c2ccc3c(c2)C(F)(F)c2cc(-c4ccc5[nH]c([C@@H]6[C@H]7CC[C@H](C7)N6C(=O)[C@@H](NC(=O)OC)C(C)C)nc5c4)ccc2-3)c[nH]1)C(C)C [Ledipasvir (GS5885)] | 23.8 | – |
| Cc1oncc1C(=O)Nc1ccc(C(F)(F)F)cc1 [Leflunomide] | 22.5 | – |
| Nc1cccc2c1CN(C1CCC(=O)NC1=O)C2=O (stereo not shown) [Lenalidomide (CC-5013)] | 40.3 | – |
| COc1cc2nccc(Oc3ccc(NC(=O)NC4CC4)c(Cl)c3)c2cc1C(N)=O [Lenvatinib (E7080)] | – | 22.86 |
| COC(=O)C1=C(C)NC(C)=C(C(=O)OC(C)(C)CN(C)CCC(c2ccccc2)c2ccccc2)C1c1cccc([N+](=O)[O-])c1 (stereo not shown) [Lercanidipine hydrochloride] | 0 | – |
| O=C(O)CSc1nnc(Br)n1-c1ccc(C2CC2)c2ccccc12 [Lesinurad] | 2.49 | – |
| CCNC(=O)[C@@H]1CCCN1C(=O)[C@H](CCCNC(=N)N)NC(=O)[C@H](CC(C)C)NC(=O)[C@@H](CC(C)C)NC(=O)[C@H](Cc1ccc(O)cc1)NC(=O)[C@H](CO)NC(=O)[C@H](Cc1c[nH]c2ccccc12)NC(=O)[C@H](Cc1c[nH]cn1)NC(=O)[C@@H]1CCC(=O)N1 [Leuprolide Acetate] | 13.2 | – |
| CCNC(=O)[C@@H]1CCCN1C(=O)[C@H](CCCNC(=N)N)NC(=O)[C@H](CC(C)C)NC(=O)[C@@H](CC(C)C)NC(=O)[C@H](Cc1ccc(O)cc1)NC(=O)[C@H](CO)NC(=O)[C@H](Cc1c[nH]c2ccccc12)NC(=O)[C@H](Cc1c[nH]cn1)NC(=O)[C@@H]1CCC(=O)N1 [Leuprorelin Acetate] | – | 6.662 |
| c1ccc([C@H]2CN3CCSC3=N2)cc1 [Levamisole hydrochloride] | 0 | – |
| CC[C@@H](C(N)=O)N1CCCC1=O [Levetiracetam] | 0 | – |
| CC(C)NC[C@H](O)COc1ccc(CCOCC2CC2)cc1 [Levobetaxolol HCl] | 12.1 | – |
| CCCCN1CCCC[C@H]1C(=O)Nc1c(C)cccc1C [Levobupivacaine HCl] | 0 | – |
| O=C(O)COCCN1CCN([C@H](c2ccccc2)c2ccc(Cl)cc2)CC1 [Levocetirizine Dihydrochloride] | 7.84 | – |
| OC[C@@H](O)CN1CCN(c2ccccc2)CC1 [Levodropropizine] | 4.43 | – |
